Assay results reported in patent US20260027073A1, “USE OF SMALL-MOLECULE COMPOUND HAVING NAPHTHYLAMINE STRUCTURE” (HANGZHOU PHECDAMED CO., LTD., priority 2023, published 2026).

Experiments:
[1] = tested on: CUMS animal model of depression; test: CUMS depression model behavioral tests; assay type: in vivo, C57BL/6J mice; details: Fluoxetine 30 mg/kg
Excerpt: Depression, also known as depressive disorder, is characterized by significant and long-lasting depressed state of mind as the main clinical feature. The CUMS animal model of depression is a chronic unpredictable animal stress model, which simulates part of the stressor, the external material environmental stimulus, and will cause dysfunctions in the animal organism through different stress stimuli, leading to occurrence of the psychiatric disease depression. […] During this period, carefully observing the status of each mouse. • (6) Basket shaking: Placing the mice in an empty basket and shaking the basket drastically, with the criterion that the mice in the basket are unable to stand firm and sway with the shaking of the basket, for 1 hour. • (7) Olfactory stimulation: Placing anise and other spices in the mice's baskets as a means of olfactory stimulation.
The above seven experiments were conducted randomly during a week as a way to achieve unpredictability with 4 weeks of continuous stimulation.
At the end of the modeling, an open field test experiment was conducted to screen the modeled animals and group the successful modeled animals into five groups: normal group (Control), model control group (Model), positive drug treatment group (Fluoxetine), TJ0113 10 mg/kg treatment group (10 mg/kg), […], TJ0113 30 mg/kg treatment group (30 mg/kg). There were 10 mice in each group, and the administration treatment was administered by gavage, the normal and model control groups were given vehicle treatment, the vehicle was 0.5% CMC-Na, the positive drug fluoxetine hydrochloride was solubilized in saline and administered at a dose of 30 mg/kg, and the TJ0113 vehicle was 0.5% CMC-Na, and administered at a dose of 10 mg/kg and 30 mg/kg, respectively. 4 weeks after the end of the administration, behavioral tests were performed.
• (1) Adaptive feeding: Adaptive feeding with 1% sucrose water and plain water for 2 d before the start of the test, at 1 d, interchanging the sugar water and plain water to avoid positional differences for the animals, and fasting food and water for 1 d after adaption; • (2) Formal test: after fasting food and water, 1% sucrose water and plain water were given to the animals (the initial mass of sugar water and plain water is known), and weighing the remaining mass of sugar water/plain water of each animal after 24 h, and calculating the consumption rates of sugar water A and plain water B; • (3) Data analysis: sugar water preference rate=(A/A+B)×100%.
• (1) adapting to the environment: placing the animals in the test environment for 60 min to adapt to the environment before the test; • (2) Formal test: fixing the rear 1/3 of the mouse tail with tape and suspending on the stand of the experimental apparatus, with the head 15 cm from the bottom; • (3) starting timing camera, and stopping after 6 min, and recording the immobility time of the mice within 4 min; • (4) At the end of the test, using 75% alcohol to wipe the bottom and inner wall of the chamber.
• (1) adapting to the environment: placing the animals in the test environment for 60 min to adapt to the environment before the test; • (2) Formal test: placing the animals to be tested in the middle of the open field, and using the ANY-Maze software to collect the data, the test time is 10 min, and the feces and urine must be removed at the end of each round and disinfected and wiped dry with 75% alcohol; • (3) Analysis of results: total moved distance and average speed during the activity, time spent in the center area and time spent in the corner area.

tinnitus model mice = test: Sodium salicylate-induced tinnitus; assay type: in vivo, C57BL/6 mice; details: 8 kHz and 16 kHz noise; 7.5, 15, 30 mg/kg, dose-dependence; vs model group; FIG. 85
Method: 7-week-old C57BL/6 male mice without tinnitus were screened for tinnitus-free mice using the acoustic startle (AS) response and gap pre-pulse inhibition of the acoustic startle (GPIAS). The mice were randomly divided into five groups, normal control group (normal, n=10), model control group (Control, n=10), TJ01-013 7.5 mg/kg treatment group (7.5 mg/kg, n=10), TJ01-013 15 mg/kg treatment group (15 mg/kg, n=10), and TJ01-013 30 mg/kg treatment group (30 mg/kg, n=10). Except for the normal control group, all the other groups were injected intraperitoneally with 450 mg/kg sodium salicylate to construct the model, in which the normal control group was injected intraperitoneally with the corresponding volume of saline, and the administration treatment was started on the day of modeling, in which the normal control group and the model control group were administrated vehicle (0.5% CMC-Na) by gavage, and the TJ01-013 treatment group was given the treatment of TJ01-013 with the corresponding concentration of TJ01-013 in a volume of 10 ml/kg, and the acoustic startle was measured again 3 hours after the last dose after 4 consecutive days of administration. Behavioral test, AS response paired with GPLAS response was the behavioral experiment to detect the presence of tinnitus. […] The output of the platform is amplified, sampled, stored in a computer, and analyzed offline. […]

O=C(O)C[S+]([O-])c1cc(NS(=O)(=O)c2ccc(Br)cc2)c2ccccc2c1O (stereo not drawn) [I-1]
average movement speed, open field ([1]; TJ0113 10 mg/kg and 30 mg/kg, FIG. 61): significantly increased | sugar water preference ([1]; TJ0113 30 mg/kg, gavage, FIG. 57): significantly increased | time in despair (immobility), tail-hanging experiment ([1]; TJ0113 30 mg/kg, FIG. 58): significantly decreased | distance moved, open field ([1]; TJ0113 30 mg/kg, FIG. 59): significantly increased | time in the edge area of the open field ([1]; TJ0113 30 mg/kg, FIG. 60): significantly decreased | AS response amplitude ratios (GPIAS) (tinnitus model mice): decreased significantly
